Reference: ChEMBL document CHEMBL1201862, “PubChem BioAssay data set” (2004)
Active and inactive are the calls of the source.

Key:
[1] = HEp-2 cell cytotoxicity, dose response, cytotoxicity control for RSV inhibitor project, HTS (AID 2410); assay type: functional; conditions: human respiratory syncytial virus
[2] = target: T1, Bcl-2-related protein A1 (Mus musculus, UniProt Q07440); assay type: functional;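 also: confirmatory dose–response counterscreen on Bfl-1, used to check hits from a UBC13 polyubiquitin inhibitor campaign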
T1 sequence (Q07440 whole entry): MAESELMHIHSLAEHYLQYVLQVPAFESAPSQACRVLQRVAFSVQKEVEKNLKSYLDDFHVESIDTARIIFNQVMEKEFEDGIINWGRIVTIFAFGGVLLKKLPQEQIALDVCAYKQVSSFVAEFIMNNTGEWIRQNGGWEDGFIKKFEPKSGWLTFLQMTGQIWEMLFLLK

[3] = target: T2, Ubiquitin-conjugating enzyme E2 N (Homo sapiens, UniProt P61088); assay type: functional
T2 sequence (P61088 whole entry): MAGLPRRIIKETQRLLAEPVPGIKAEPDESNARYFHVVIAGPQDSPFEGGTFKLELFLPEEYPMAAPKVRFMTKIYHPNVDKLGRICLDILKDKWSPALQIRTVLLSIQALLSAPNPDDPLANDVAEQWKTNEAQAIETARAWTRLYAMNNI

[4] = target: T3, Intestinal-type alkaline phosphatase (Homo sapiens, UniProt P09923); assay: human intestinal alkaline phosphatase activators, dose response, biochemical, luminescence, uHTS hits (AID 463120); assay type: functional
[5] = target: T2, Ubiquitin-conjugating enzyme E2 N; assay type: functional; remark: listed apart in the source
[6] = target: T4, SUMO-activating enzyme (Homo sapiens, UniProt Q9UBT2); assay: SUMOylation inhibitor hit validation, confirmation, SUMOylation inhibitor project, biochemical, AlphaScreen (AID 2018); assay type: functional
[7] = target: T5, Voltage-gated N-type calcium channel alpha-1B subunit/Amyloid beta A4 precursor protein-binding family A member 1 (Homo sapiens, UniProt Q00975+Q02410); assay type: protein assay
[8] = target: T4, SUMO-activating enzyme; assay: inhibitors of in vitro SUMOylation cascade, primary screen, biochemical, HTRF, uHTS (AID 2006); assay type: protein-complex assay
[9] = target: T5, Voltage-gated N-type calcium channel alpha-1B subunit/Amyloid beta A4 precursor protein-binding family A member 1; assay type: protein assay; remark: listed apart in the source
[10] = target: Troponin, cardiac muscle (Homo sapiens, UniProt P19429+P45379+P63316); assay: Fluorescence-based biochemical high throughput dose response assay for activators of the calcium sensitivity of cardiac Regulated Thin Filaments (RTF). [Related pubchem assays (depositor defined):AID493008, AID493018, AID504382, AID504383]; assay type: protein-complex assay
[11] = target: Kappa-type opioid receptor (Homo sapiens, UniProt P41145); assay: SAR analysis of small molecule agonists of the kappa opioid receptor via a luminescent beta-arrestin assay - Set 3. [Related pubchem assays (depositor defined):AID1777, AID1785, AID1786, AID1966, AID2133, AID2136, AID2284, AID2500]; assay type: functional
[12] = target: T6, Dual specificity protein phosphatase 3 (Homo sapiens, UniProt P51452); assay: SAR VHR1 absorbance Assay for In Vitro dose response studies. [Related pubchem assays (depositor defined):AID1654, AID1661, AID1878, AID1992, AID2004]
[13] = target: T6, Dual specificity protein phosphatase 3; assay: SAR VHR1 Fluorescent Assay for In Vitro dose response studies. [Related pubchem assays (depositor defined):AID1654, AID1661, AID1878, AID1992, AID2004, AID2070, AID2085]; assay type: functional
[14] = target: T7, Tyrosine-protein phosphatase non-receptor type 7 (Homo sapiens, UniProt P35236); assay: redox-dependent HePTP inhibition, mechanism study, biochemical, fluorescence (AID 2068); assay type: functional
T7 sequence (P35236 whole entry): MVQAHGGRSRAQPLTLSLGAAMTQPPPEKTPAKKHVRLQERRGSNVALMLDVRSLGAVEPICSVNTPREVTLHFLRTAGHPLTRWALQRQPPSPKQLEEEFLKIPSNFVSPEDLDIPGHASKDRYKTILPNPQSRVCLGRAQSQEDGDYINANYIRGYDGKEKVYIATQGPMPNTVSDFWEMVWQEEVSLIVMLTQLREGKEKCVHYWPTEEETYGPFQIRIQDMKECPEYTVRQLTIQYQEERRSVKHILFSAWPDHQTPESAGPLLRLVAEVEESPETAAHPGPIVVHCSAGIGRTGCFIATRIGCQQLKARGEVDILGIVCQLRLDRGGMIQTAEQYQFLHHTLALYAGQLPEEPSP

[15] = target: T8, Dual specificity protein phosphatase 6 (Rattus norvegicus, UniProt Q64346); assay: SAR analysis of inhibitors of MKP-3 - Set 2. [Related pubchem assays (depositor defined):AID1055, AID1661, AID425, AID553, AID566]; assay type: functional
T8 sequence (Q64346 whole entry): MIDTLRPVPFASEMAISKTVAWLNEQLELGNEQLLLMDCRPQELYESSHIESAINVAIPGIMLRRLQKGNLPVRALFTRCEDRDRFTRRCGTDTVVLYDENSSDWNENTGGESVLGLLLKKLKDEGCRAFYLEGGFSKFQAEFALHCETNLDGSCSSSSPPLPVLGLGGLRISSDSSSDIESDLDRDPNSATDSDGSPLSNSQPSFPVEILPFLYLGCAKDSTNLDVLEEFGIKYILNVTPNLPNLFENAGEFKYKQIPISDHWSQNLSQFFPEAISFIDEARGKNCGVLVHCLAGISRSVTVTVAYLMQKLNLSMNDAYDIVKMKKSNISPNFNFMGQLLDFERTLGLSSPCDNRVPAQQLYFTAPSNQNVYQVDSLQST

[16] = target: T7, Tyrosine-protein phosphatase non-receptor type 7; assay: HePTP (PTPN7) phosphatase inhibitor potency, SAR follow-up, biochemical, set 2 (AID 449736); assay type: functional
[17] = target: T7, Tyrosine-protein phosphatase non-receptor type 7; assay: SAR analysis of chemical inhibitors of HePTP using a Fluorescent assay - Set 2. [Related pubchem assays (depositor defined):AID1059, AID1077, AID1661, AID2085, AID521]; assay type: functional
[18] = target: T6, Dual specificity protein phosphatase 3; assay: SAR VHR1 Fluorescent Assay for In Vitro dose response studies Set 2. [Related pubchem assays (depositor defined):AID1654, AID1661, AID1878]; assay type: functional
[19] = target: T8, Dual specificity protein phosphatase 6; assay type: functional
[20] = target: T9, Cannabinoid receptor 2 (Homo sapiens, UniProt P34972); assay: SAR analysis of antagonists of the Cannabinoid Receptor 2 using an Image-Based Assay - Set 2. [Related pubchem assays (depositor defined):AID1961, AID1965]; assay type: functional
[21] = target: G-protein coupled receptor 55 (Homo sapiens, UniProt Q9Y2T6); assay: SAR analysis of selective Agonists of GPR55 using an Image-Based Assay - Set 2. [Related pubchem assays (depositor defined):AID1961, AID1965]; assay type: functional
[22] = target: T9, Cannabinoid receptor 2; assay: SAR analysis of agonists of the Cannabinoid Receptor 2 using an Image-Based Assay - Set 2. [Related pubchem assays (depositor defined):AID1961, AID1965]; assay type: functional
[23] = target: T10, G-protein coupled receptor 35 (Homo sapiens, UniProt Q9HC97); assay: SAR analysis of Agonists of the GPR35 Receptor using an Image-Based Assay - Set 3. [Related pubchem assays (depositor defined):AID1961, AID1965]; assay type: functional
[24] = target: T11, Cannabinoid receptor 1 (Homo sapiens, UniProt P21554); assay: SAR analysis of antagonists of the Cannabinoid Receptor 1 using an Image-Based Assay - Set 3. [Related pubchem assays (depositor defined):AID1961, AID1965]; assay type: functional
[25] = target: T11, Cannabinoid receptor 1; assay: SAR analysis of agonists of the Cannabinoid Receptor 1 using an Image-Based Assay - Set 3. [Related pubchem assays (depositor defined):AID1961, AID1965]; assay type: functional
[26] = target: T10, G-protein coupled receptor 35; assay: SAR analysis of Antagonists of the GPR35 Receptor using an Image-Based Assay - Set 4. [Related pubchem assays (depositor defined):[…]]; assay type: functional
[27] = target: T12, Mannose-6-phosphate isomerase (Homo sapiens, UniProt P34949); assay: Confirmation of compounds inhibiting phosphomannose isomerase (PMI) via a fluorescence intensity assay using a high concentration of mannose 6-phosphate. [Related pubchem assays (depositor defined):AID1209, AID1220, AID1545, AID1553, AID1620]
T12 sequence (P34949 whole entry): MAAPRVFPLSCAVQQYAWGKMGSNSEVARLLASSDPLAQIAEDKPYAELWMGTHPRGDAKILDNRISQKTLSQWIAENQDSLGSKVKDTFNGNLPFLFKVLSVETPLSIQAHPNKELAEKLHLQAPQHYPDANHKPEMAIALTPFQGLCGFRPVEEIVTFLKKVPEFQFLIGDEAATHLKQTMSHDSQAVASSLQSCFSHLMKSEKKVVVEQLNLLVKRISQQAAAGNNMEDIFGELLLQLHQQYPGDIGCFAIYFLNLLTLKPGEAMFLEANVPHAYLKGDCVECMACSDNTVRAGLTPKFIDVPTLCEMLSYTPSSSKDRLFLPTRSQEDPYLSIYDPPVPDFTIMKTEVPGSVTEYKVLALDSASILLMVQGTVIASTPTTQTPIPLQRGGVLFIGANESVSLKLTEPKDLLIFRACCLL

[28] = microbe, parasite or virus in culture; assay type: functional; conditions: Mycobacterium tuberculosis
[29] = target: T12, Mannose-6-phosphate isomerase; assay: PMI enzyme inhibitors, confirmation, biochemical, fluorescence intensity (AID 1535)
[30] = target: Intestinal-type alkaline phosphatase (Mus musculus, UniProt P24822); assay: PubChem AID 488874; assay type: functional
[31] = target: Alkaline phosphatase, placental type (Homo sapiens, UniProt P05187); assay: PLAP enzyme inhibitors, confirmation, biochemical, luminescence (AID 1512); assay type: functional
[32] = target: T3, Intestinal-type alkaline phosphatase; assay: human IAP activators, dose response, biochemical, luminescent, uHTS hits, set 2 (AID 488817); assay type: functional;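 also: potency of activators that raise enzyme activity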
[33] = system: CHO; assay: cytotoxicity in TLR9-MyD88 CHO cells, dose response, cytotoxicity control for TLR9-MyD88 binding inhibitor project, cell-based, luminescence (AID 588339); assay type: functional, hamster; conditions: Cricetulus griseus;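 also: CHO cells stably coexpressing TLR9 and MyD88 fusions from primary screen; compound exposure lasted 48 hours before viability readout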
[34] = target: T13, Endoribonuclease toxin MazF (Escherichia coli K-12, UniProt P0AE70); assay: MazF toxin RNase activators, dose response, biochemical, fluorescence, single-stranded RNA substrate, uHTS hits (AID 588481); assay type: functional
T13 sequence (P0AE70 whole entry): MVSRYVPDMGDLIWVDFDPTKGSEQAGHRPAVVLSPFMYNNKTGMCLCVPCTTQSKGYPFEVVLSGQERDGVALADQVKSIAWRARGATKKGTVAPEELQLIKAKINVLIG

[35] = target: Heat shock protein HSP 90-alpha (Homo sapiens, UniProt P07900); assay type: functional, organism-based
[36] = target: T13, Endoribonuclease toxin MazF; assay: fluorescent RNA oligo signal without MazF, dose response, counter-screen for MazEF activator project, biochemical, fluorescence, single-stranded RNase substrate (AID 588502); assay type: functional
[37] = SV40 cytopathic effect inhibition and cytotoxicity, confirmation, BSC cells, set 3 (AID 485276); assay type: functional, cell-based
[38] = target: Large T antigen (Simian virus 40, UniProt P03070); assay: A confirmatory biochemical assay using the ADP-Hunter methodology, purified TAg, and ATP to quantify activity of synthesized compounds that inhibit the ATPase activity of Tag (3). [Related pubchem assays (depositor defined):AID1903, AID1909, AID2102, AID2501, AID2615, AID2775, AID435001, AID449729]; design: species or system Betapolyomavirus macacae

T3 sequence (P09923 whole entry): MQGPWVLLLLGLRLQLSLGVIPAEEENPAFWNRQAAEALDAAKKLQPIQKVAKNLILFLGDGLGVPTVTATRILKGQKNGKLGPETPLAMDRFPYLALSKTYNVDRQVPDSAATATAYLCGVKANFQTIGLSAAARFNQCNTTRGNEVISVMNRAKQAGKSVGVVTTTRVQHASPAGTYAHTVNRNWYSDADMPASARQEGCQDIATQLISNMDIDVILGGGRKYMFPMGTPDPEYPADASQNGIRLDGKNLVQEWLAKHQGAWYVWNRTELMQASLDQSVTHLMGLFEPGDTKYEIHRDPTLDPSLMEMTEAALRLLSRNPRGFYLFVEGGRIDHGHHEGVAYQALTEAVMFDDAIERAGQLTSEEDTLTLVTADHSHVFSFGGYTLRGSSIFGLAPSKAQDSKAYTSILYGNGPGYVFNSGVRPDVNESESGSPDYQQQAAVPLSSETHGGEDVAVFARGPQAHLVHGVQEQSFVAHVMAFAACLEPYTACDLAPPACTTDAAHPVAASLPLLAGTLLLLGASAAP
T6 sequence (P51452 whole entry): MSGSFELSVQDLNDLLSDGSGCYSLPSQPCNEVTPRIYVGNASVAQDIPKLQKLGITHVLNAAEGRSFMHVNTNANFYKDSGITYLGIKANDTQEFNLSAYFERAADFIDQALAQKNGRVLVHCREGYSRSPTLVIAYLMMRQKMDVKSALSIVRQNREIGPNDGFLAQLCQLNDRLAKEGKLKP
T5 sequence (Q00975 whole entry): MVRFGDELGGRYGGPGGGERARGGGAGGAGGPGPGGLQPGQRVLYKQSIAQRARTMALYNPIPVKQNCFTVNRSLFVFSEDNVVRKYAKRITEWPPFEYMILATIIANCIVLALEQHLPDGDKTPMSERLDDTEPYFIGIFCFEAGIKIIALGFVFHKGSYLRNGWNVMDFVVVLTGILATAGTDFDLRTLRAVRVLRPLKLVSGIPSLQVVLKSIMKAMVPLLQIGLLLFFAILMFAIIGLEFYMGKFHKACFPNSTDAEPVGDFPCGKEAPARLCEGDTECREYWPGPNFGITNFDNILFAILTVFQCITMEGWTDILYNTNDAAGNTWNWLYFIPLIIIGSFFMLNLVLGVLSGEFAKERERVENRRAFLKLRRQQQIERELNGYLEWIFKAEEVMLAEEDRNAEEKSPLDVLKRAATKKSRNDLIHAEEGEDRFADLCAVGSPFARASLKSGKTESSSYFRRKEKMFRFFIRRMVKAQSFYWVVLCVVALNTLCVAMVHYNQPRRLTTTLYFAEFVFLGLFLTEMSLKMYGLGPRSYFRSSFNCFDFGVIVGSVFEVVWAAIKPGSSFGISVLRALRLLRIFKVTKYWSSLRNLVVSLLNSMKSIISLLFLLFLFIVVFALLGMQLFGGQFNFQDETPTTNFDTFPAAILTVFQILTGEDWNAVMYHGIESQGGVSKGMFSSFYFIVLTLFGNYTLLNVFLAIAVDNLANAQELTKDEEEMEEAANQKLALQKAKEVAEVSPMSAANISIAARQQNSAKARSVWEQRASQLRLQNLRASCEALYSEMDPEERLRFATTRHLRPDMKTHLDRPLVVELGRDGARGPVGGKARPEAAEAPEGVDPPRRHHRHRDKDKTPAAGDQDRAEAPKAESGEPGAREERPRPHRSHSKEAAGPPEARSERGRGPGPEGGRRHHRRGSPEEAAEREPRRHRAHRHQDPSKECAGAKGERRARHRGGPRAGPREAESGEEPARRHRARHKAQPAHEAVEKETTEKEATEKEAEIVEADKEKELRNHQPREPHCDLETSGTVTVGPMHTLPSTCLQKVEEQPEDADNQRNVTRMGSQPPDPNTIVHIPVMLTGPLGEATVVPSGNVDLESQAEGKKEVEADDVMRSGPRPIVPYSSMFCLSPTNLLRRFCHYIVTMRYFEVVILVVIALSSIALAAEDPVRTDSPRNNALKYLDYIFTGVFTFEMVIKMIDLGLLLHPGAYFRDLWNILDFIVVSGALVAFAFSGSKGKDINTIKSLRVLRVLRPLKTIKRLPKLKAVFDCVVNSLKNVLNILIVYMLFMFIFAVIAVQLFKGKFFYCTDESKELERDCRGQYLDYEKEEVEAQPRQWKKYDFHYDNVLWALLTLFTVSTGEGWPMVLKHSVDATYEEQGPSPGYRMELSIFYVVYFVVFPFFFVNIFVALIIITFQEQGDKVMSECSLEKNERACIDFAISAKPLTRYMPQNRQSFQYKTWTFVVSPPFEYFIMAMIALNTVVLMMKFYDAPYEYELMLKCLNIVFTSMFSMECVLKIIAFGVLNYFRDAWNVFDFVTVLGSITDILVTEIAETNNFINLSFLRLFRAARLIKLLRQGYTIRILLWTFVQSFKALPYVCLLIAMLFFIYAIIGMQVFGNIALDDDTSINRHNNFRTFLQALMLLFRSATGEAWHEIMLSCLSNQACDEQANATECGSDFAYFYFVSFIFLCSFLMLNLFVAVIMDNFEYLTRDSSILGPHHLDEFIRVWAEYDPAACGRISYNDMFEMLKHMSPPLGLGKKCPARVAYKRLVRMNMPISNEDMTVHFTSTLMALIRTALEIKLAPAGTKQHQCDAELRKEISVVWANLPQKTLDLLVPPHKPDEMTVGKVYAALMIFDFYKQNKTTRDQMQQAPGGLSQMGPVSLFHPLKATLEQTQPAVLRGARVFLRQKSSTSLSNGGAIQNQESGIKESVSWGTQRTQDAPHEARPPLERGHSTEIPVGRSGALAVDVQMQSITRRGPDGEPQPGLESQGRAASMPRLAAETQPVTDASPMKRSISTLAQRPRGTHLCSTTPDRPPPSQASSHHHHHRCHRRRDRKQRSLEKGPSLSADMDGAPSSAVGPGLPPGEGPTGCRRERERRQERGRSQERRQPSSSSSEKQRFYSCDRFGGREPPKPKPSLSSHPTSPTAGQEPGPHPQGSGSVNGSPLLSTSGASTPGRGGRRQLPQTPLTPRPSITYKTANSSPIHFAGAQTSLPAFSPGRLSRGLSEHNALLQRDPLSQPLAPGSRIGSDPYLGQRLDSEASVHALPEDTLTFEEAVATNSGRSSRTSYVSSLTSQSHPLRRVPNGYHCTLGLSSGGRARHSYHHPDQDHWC
T5 sequence (Q02410 whole entry): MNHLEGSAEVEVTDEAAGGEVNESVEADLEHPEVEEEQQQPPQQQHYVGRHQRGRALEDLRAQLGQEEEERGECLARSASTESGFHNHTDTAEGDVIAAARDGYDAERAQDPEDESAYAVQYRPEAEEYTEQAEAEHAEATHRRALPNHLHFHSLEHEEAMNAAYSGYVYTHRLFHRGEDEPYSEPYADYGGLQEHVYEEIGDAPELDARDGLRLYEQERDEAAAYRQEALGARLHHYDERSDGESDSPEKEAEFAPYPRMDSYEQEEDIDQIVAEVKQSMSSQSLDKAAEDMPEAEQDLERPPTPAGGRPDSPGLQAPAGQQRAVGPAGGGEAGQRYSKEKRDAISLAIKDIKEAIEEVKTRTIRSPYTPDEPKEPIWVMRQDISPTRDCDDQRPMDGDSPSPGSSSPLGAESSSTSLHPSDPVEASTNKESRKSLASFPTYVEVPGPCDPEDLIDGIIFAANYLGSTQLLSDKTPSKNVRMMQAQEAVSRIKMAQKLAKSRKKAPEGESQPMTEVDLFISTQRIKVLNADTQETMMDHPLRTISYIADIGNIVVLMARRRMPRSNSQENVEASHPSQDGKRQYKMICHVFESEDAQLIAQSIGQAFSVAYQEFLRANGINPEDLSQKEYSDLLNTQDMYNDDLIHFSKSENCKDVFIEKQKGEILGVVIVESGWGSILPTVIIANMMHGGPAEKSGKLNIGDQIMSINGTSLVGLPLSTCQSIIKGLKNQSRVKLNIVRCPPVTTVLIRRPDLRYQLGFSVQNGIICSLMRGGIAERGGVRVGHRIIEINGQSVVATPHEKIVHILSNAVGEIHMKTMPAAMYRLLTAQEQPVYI
T9 sequence (P34972 whole entry): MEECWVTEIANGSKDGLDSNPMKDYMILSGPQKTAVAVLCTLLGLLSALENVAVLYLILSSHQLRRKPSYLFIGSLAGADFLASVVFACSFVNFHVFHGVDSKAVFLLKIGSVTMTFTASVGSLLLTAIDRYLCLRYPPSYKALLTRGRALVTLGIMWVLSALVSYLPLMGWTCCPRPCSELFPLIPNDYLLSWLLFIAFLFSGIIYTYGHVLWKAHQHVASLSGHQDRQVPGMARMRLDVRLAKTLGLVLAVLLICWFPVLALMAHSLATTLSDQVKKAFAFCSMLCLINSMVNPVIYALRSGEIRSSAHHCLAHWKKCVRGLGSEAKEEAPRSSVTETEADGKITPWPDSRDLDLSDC
T10 sequence (Q9HC97 whole entry): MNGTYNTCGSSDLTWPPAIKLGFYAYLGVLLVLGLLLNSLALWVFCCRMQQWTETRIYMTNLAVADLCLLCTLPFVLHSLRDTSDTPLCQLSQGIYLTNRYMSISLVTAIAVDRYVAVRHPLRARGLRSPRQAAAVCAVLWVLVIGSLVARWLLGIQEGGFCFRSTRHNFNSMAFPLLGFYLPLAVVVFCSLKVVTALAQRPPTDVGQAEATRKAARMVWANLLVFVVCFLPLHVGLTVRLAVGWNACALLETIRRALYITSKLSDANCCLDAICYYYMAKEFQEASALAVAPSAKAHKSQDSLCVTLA
T11 sequence (P21554 whole entry): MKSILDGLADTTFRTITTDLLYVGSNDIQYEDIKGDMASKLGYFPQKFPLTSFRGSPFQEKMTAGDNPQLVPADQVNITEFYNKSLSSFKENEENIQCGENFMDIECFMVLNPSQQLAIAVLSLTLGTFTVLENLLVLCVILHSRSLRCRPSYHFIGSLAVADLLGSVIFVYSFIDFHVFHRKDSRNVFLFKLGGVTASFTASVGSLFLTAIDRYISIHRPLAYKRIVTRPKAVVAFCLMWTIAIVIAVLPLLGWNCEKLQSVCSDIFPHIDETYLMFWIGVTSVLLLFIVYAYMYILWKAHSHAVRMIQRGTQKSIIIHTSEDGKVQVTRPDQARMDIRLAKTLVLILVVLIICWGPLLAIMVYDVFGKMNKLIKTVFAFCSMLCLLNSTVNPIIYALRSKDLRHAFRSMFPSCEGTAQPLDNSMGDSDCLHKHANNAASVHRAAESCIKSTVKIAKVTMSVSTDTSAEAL

C#CCOCCOCCOCCNc1nc(N2CCN(C(=O)CCCCCCCCCCNC(=O)[C@H]([C@@H](C)CC)n3cc(CCCCN=C(N)N)nn3)CC2)nc(N2CCN(C(=O)CCCCCCCCCCNC(=O)[C@H](CO)n3cc(CCCSC)nn3)CC2)n1
active: CC50 [1] 13.7 µM | IC50 [2] 3.11 µM | IC50 [3] 5.99 µM | EC50 [4] 40.7 µM | IC50 [5] 3.7 µM

O=C(N/N=C/c1ccc([N+](=O)[O-])o1)c1cn2ccc3ccccc3c2n1
> 56.8 µM (not active): IC50 [7]
inactive: IC50 [8] > 100 µM | IC50 [9] > 50 µM
active: IC50 [6] 35.1 µM

Cc1sc(NC(=O)CSc2nnc(C(C)C)n2C)c(C#N)c1C
inactive: EC50 [10] > 71.5 µM

CCCCN(Cc1cc2cc(Cl)ccc2[nH]c1=O)C(=O)c1cccs1
inactive: EC50 [11] > 20 µM

NS(=O)(=O)c1ccc(NC(=S)N2CCN(Cc3ccc4c(c3)OCO4)CC2)cc1
active: IC50 [12] 5.41 µM | IC50 [14] 0.196 µM | IC50 [17] 4.32 µM | IC50 [18] 1.69 µM
inactive: IC50 [13] > 99 µM | IC50 [15] > 100 µM | IC50 [16] > 100 µM | IC50 [19] > 99 µM

Cc1cccc(N2CCN(C(=O)c3cccc(S(=O)(=O)N4CCCCC4)c3)CC2)c1C
inactive: IC50 [20] > 32 µM | EC50 [21] > 32 µM | EC50 [22] > 32 µM | EC50 [23] > 32 µM | IC50 [24] > 32 µM | EC50 [25] > 32 µM | IC50 [26] > 32 µM

O=C1Nc2ccc(Br)cc2C12NNc1ccccc1O2 (centres undefined)
inactive: IC50 [27] > 100 µM | IC50 [29] > 100 µM | IC50 [31] > 100 µM | IC50 [33] 11.3 µM | EC50 [34] > 99 µM | EC50 [36] 73.1 µM
active: CC50 [28] 23.8 µM | IC50 [30] 8.09 µM | EC50 [4] 10.1 µM | EC50 [32] 0.257 µM | AC50 [35] 3.34 µM

Oc1ccc(Sc2ccc(O)cc2O)c(O)c1
active: IC50 [37] 146 µM | IC50 [38] 61.2 µM
